Source: paper PMC6617776, “Novel Antihypertensive Peptides Derived from Chicken Foot Proteins” (Molecular Nutrition & Food Research, 2019)
Ends that are not written are not given here.

Assays:
[1] = biological target: T1, ACE (angiotensin I‐converting enzyme, EC 3.4.15.1) (Oryctolagus cuniculus, UniProt P12822); test: ACEI activity, fluorimetric assay with o-Abz-Gly-p-Phe(NO2)-Pro-OH; type: biochemical; conditions: synthetic peptides; concentration of peptide needed to inhibit 50 % of the original ACE activity
T1 sequence (P12822 34-1310): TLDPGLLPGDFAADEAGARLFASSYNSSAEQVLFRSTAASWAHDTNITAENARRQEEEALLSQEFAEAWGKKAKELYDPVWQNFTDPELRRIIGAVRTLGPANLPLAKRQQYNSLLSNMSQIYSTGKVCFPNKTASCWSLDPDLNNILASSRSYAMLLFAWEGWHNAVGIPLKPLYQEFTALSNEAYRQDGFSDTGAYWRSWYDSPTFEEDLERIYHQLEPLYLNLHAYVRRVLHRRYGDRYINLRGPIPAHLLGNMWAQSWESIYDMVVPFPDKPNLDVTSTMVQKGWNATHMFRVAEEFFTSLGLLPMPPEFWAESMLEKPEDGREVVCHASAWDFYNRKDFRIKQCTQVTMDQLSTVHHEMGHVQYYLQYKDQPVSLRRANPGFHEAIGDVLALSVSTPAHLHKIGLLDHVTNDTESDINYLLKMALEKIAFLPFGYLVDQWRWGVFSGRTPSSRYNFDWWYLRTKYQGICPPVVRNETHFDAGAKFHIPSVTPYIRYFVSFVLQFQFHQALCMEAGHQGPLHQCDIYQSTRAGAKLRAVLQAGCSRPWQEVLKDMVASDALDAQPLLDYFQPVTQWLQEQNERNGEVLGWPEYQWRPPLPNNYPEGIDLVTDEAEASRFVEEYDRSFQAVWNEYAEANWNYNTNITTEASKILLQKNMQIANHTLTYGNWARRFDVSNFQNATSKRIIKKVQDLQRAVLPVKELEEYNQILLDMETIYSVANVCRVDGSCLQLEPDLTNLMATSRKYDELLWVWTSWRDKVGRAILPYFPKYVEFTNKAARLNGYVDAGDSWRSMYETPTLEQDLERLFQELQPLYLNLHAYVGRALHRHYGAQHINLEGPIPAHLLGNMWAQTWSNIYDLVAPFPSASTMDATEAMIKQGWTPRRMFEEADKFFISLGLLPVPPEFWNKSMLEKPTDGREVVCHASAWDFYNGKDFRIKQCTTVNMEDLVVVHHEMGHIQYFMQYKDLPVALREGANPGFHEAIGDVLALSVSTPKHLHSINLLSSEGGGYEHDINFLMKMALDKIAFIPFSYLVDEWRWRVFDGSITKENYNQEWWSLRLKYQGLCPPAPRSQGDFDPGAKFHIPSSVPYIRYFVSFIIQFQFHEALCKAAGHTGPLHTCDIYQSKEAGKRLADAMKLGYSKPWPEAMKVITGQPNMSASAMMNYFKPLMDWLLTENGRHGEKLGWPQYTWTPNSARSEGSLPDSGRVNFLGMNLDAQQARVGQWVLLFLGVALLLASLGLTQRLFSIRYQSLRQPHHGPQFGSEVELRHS
Text: Chicken feet (Gallus gallus domesticus) were provided by a local farm (Granja Gaià, La Riera de Gaià, Spain). Protamex solutions (EC 3.4.21.62 and 3.4.24.28, 1.5 AU g^−1 from Bacillus licheniformis and Bacillus amyloliquefaciens) were kindly provided by Novozymes (Bagsværd, Denmark). ACE (angiotensin I‐converting enzyme, EC 3.4.15.1) was purchased from Sigma‐Aldrich (Madrid, Spain), captopril (PubChem CID: 44093) was purchased from Santa Cruz Biotechnology (Dallas, TX, USA) and o‐aminobenzoylglicil‐p‐nitrofenilalanilprolina (o‐Abz‐Gly‐p‐Phe(NO2)‐Pro‐OH) was provided by Bachem Feinchemikalien (Bubendorf, Switzerland). The synthesized peptides (LSETVV, LSGPVKF, AVKILP, VRWEPAPGPV, VGKPGARAPMY, QVGPLIGRYCG, LGIHPDWQFV, and AVFQHNCQE, purity grade ≥ 90 %) were purchased from Caslo Laboratory ApS (Kongens Lyngby, Denmark). Acetonitrile and trifluoroacetic acid were purchased from Sigma‐Aldrich. All other chemical solvents used were of analytical grade.
ACEI activity was measured according to Mas‐Capdevila et al.21 The fluorescence measurements were performed after 30 min in a multiscan microplate fluorimeter (FLUOstar optima, BMG Labtech, Offeuburg, Germany). The excitation and emission wavelengths were 360 and 400 nm, respectively. The software used to process the data was FLUOstar control (version 1.32 R2, BMG Labtech).
A nonlinear fit was performed on the experimental data to calculate the 50 % inhibitory concentration values (IC50) with the PRISM version 4.02 program for Windows (GraphPad Software, Inc. San Diego, CA, USA). ACEI activity was expressed as a percentage (%) or IC50 (µg µL^−1 solution). The determination of the ACEI activity of the samples was performed at least in duplicate. Data are represented as a mean value ± standard deviation (SD).
Protein content was determined by the bicinchoninic acid method using the standard Pierce BCA Protein Assay (ThermoFisher Scientific). The assay was conducted according to the manufacturer's instructions in a microplate format. A calibration standard curve was prepared with seroalbumin bovine. Determination of the protein content was performed at least in duplicate. The results are expressed as the mean ± SD.

[2] = tested on: spontaneously hypertensive rats (SHR); test: Measurement of blood pressure by the tail-cuff method after a single oral dose; type: in vivo, rat; conditions: captopril 50 mg kg^−1 bw oral single dose, mean ± SEM, n = 6
Protocol: Male SHR (17–20 weeks old, weighing 350–400 g) were obtained from Charles River Laboratories España S.A. (Barcelona, Spain). The animals were singly housed in animal quarters at 22 °C with a 12 h light–dark period. They were fed with a standard diet based on chow Panlab A04 (Panlab, Barcelona, Spain) and had access to tap water ad libitum.
The SBP and DBP in the animals were measured using the tail‐cuff method 23 with a noninvasive BP system model (Letica, Hospitalet, Barcelona, Spain). The rats were given a single dose of 10 mg kg^−1 body weight (bw) of the synthesized peptides, including VGKPGARAPMY, QVGPLIGRYCG, AVFQHNCQE, LSGPVKF, or AVKILP, dissolved in tap water in a total volume of 1.5 mL. Peptides were administered to the SHR by gastric […] through an acute administration between 9 and 10 in the morning.
Positive control rats received 50 mg kg^−1 bw of captopril, a known ACE‐inhibitor, also dissolved in 1.5 mL of tap water, and the negative control rats received 1.5 mL of tap water. SBP was measured in the rats before peptide administration as well as 2, 4, 6, 8, and 24 h post‐administration. […] The changes in SBP and DBP were expressed as the differences in these variables before and after the administration of the different peptides. […]
Differences between treatments were analyzed by two‐way analysis of variance (two‐way ANOVA). […] Outliers were determined using Grubbs’ test. […]

ACE = tested on: ACE; parameters: method as in earlier work; conditions: read-out: ACEI activity IC50 of fermented milk-derived peptides; cited from earlier work

Molecule	IC50 [1]	also measured
AVKILP [AVKILP]	7.1 µM	–
AVFQHNCQE [AVFQHNCQE]	44.8 µM	–
C[C@H](CS)C(=O)N1CCC[C@H]1C(=O)O [captopril]	–	maximum decrease in DBP ([2]; 4 h post-administration): −32.97 ± 8.80 mmHg; maximum decrease in SBP ([2]; 6 h post-administration): −33.67 ± 1.94 mmHg
LHLPLP [known antihypertensive fermented milk-derived peptide]	–	IC50 (ACE): 5.5 µM
LGIHPDWQFV [LGIHPDWQFV]	> 138 µM	–
LSGPVKF [LSGPVKF]	80.9 µM	–
VRWEPAPGPV [VRWEPAPGPV]	> 150 µM	–
QVGPLIGRYCG [QVGPLIGRYCG]	11 µM	–
